Test systems include SNB-75 CNS; SN12C renal; SF-268 CNS; NCI-H226 lung; BT-549 breast; UO-31 renal; IGROV1 ovarian; UACC-257 melanoma; HOP-92 NSCLC; HCC-2998 colon.
Assay in all cases: growth of human tumour cells (NCI), 48 h

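Method: 48-hour compound exposure of cells in 96-well plates, five concentrations, linear interpolation of endpoints. TGI is the concentration that stops growth completely.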

For the compound `Cc1ccc(NC(=O)COc2ccc(Cl)cc2)cc1Cl`, the TGI in the assay with SNB-75 CNS, with SN12C renal, in the assay with SF-268 CNS, in the assay on NCI-H226 lung, in the assay on BT-549 breast and in the assay with UO-31 renal was above 100 µM each time. Moreover, the TGI with IGROV1 ovarian, in the assay on UACC-257 melanoma and in the assay with HOP-92 NSCLC was above 100 µM in each case.

For the compound `CCC(O)CCCCCCCCCCCCCCC(=O)O` (centres undefined), the TGI with SNB-75 CNS, with SN12C renal, in the assay on SF-268 CNS, in the assay on NCI-H226 lung, with UO-31 renal and in the assay with IGROV1 ovarian was above 100 µM each time. Moreover, the TGI with UACC-257 melanoma and in the assay on HOP-92 NSCLC was above 100 µM throughout.

Consider `C=CCC1(CN(C)C)CC/C(=C\c2ccc3c(c2)OCO3)C1=O` (centres undefined), for which the TGI in the assay with SNB-75 CNS, in the assay on SN12C renal, in the assay on SF-268 CNS, in the assay with NCI-H226 lung, in the assay with UO-31 renal and with HCC-2998 colon was above 100 µM each time. Further, the TGI with IGROV1 ovarian, in the assay on UACC-257 melanoma and in the assay with HOP-92 NSCLC was above 100 µM each time.

On to `CCCCCCCCCCCCCCNCC(OC)OC`, for which the TGI is 26.9 µM with SNB-75 CNS; 30.9 µM in the assay with SN12C renal; 39.4 µM with SF-268 CNS; 34.4 µM in the assay with NCI-H226 lung; 25.7 µM with UO-31 renal; 33.4 µM in the assay with HCC-2998 colon. Besides, the TGI in the assay on IGROV1 ovarian turned out to be 32.3 µM; with UACC-257 melanoma, 37.5 µM; in the assay with HOP-92 NSCLC, 23.9 µM.

Regarding `CC1(c2ccc(F)cc2)C2C(=O)NC(=O)C1C(=O)NC2=O` (centres undefined), the TGI in the assay with SNB-75 CNS, in the assay on SN12C renal, in the assay on SF-268 CNS, with NCI-H226 lung, in the assay with UO-31 renal and in the assay on HCC-2998 colon was above 100 µM throughout. Further, the TGI in the assay with IGROV1 ovarian, in the assay with UACC-257 melanoma and in the assay with HOP-92 NSCLC was above 100 µM throughout.

As to `OC1OCC(COc2cc(Cl)c(Cl)cc2Cl)OC1O` (centres undefined), the TGI in the assay on SNB-75 CNS, in the assay on SN12C renal, in the assay with SF-268 CNS, in the assay with NCI-H226 lung, in the assay on UO-31 renal and in the assay on HCC-2998 colon was above 100 µM each time. Moreover, the TGI in the assay with IGROV1 ovarian was above 100 µM; in the assay on UACC-257 melanoma, above 100 µM; in the assay on HOP-92 NSCLC it was 94.3 µM.

`COc1ccc(/C(=N/O)c2ccccc2C2=Nc3ccccc3C(NCc3ccccc3)O2)cc1C` (centres undefined): the TGI in the assay on SNB-75 CNS is 75.4 µM; in the assay on SN12C renal, above 100 µM; in the assay with SF-268 CNS it was above 100 µM; in the assay on NCI-H226 lung it was above 100 µM; in the assay with UO-31 renal, 67.5 µM; in the assay with HCC-2998 colon it was above 100 µM. In addition, the TGI in the assay on IGROV1 ovarian is above 100 µM; with UACC-257 melanoma, 41.9 µM; in the assay with HOP-92 NSCLC, 71.9 µM.

As to `C/C(=N\N=C(N)N)C(CN1CCOCC1)C(c1ccccc1)c1c(O)c2ccccc2oc1=O` (centres undefined), the TGI is 99.4 µM with SNB-75 CNS; above 100 µM in the assay on SN12C renal; above 100 µM in the assay with SF-268 CNS; above 100 µM with NCI-H226 lung; above 100 µM in the assay on HCC-2998 colon; above 100 µM with IGROV1 ovarian. The TGI in the assay with UACC-257 melanoma is above 100 µM; with HOP-92 NSCLC, 96.9 µM.

As to `Cc1nc(N)c(N2CCN(S(=O)(=O)N(Cc3ccccc3)Cc3ccccc3)CC2)c(=O)[nH]1`, the TGI with SNB-75 CNS was 28.6 µM; in the assay with SN12C renal it was 80.7 µM; in the assay on SF-268 CNS, 73.5 µM; in the assay with NCI-H226 lung it was above 100 µM; with BT-549 breast it was above 100 µM; with UO-31 renal it was above 100 µM. Further, the TGI in the assay on HCC-2998 colon is above 100 µM; in the assay with UACC-257 melanoma, 61.5 µM.

Turning to `O=C(Nc1ccc(Br)cc1)C(=O)C(C(=O)c1ccc(Cl)c(Cl)c1)C1OC(=O)c2ccccc21` (centres undefined), the TGI amounted to 65.9 µM in the assay with SNB-75 CNS; 68.3 µM in the assay on SN12C renal; 21.4 µM with SF-268 CNS; 20.6 µM in the assay on NCI-H226 lung; 43.2 µM in the assay on UO-31 renal; 29.2 µM in the assay on HCC-2998 colon. Further, the values for the TGI in the assay with IGROV1 ovarian, in the assay on UACC-257 melanoma and with HOP-92 NSCLC were 42.8 µM, 38.9 µM and 58.4 µM, respectively.

Consider `C=CC1=C(C)C(/C=c2\[nH]/c(=C/c3[nH]c(CC4NC(=O)C(C)/C4=C\C)c(C)c3CCC(=O)O)c(CC(=O)O)c2C)=NC1=O` (centres undefined), for which the TGI in the assay with SNB-75 CNS, in the assay with SN12C renal, in the assay with SF-268 CNS, in the assay on NCI-H226 lung, in the assay on UO-31 renal and in the assay with HCC-2998 colon was above 100 µM each time. In addition, the TGI in the assay with IGROV1 ovarian, in the assay with UACC-257 melanoma and with HOP-92 NSCLC was above 100 µM in each case.

Take `O=C(CC12C3C4C1C1C2C3C41CC(=O)NO)NO` (centres undefined): the TGI in the assay on SNB-75 CNS is 81 µM; with SN12C renal it was above 100 µM; in the assay with SF-268 CNS, above 100 µM; in the assay on NCI-H226 lung, 94.3 µM; in the assay on HCC-2998 colon, above 100 µM; with UACC-257 melanoma, 64.3 µM. Besides, in the assay on HOP-92 NSCLC, the TGI was found to be 97 µM.

As to `O=C1CCC2(O)c3ccccc3C2Cc2ccccc21` (centres undefined), the TGI in the assay on SNB-75 CNS, in the assay with SN12C renal, in the assay with SF-268 CNS, in the assay with NCI-H226 lung, in the assay with HCC-2998 colon and in the assay with IGROV1 ovarian was above 100 µM throughout. Also, the TGI with UACC-257 melanoma and in the assay on HOP-92 NSCLC was above 100 µM throughout.

For the compound `CSc1ccc(N2C(=O)C3c4[nH]c5ccccc5c4C4CCC(C(C)(C)C)CC4C3C2=O)cc1` (centres undefined), the TGI in the assay on SNB-75 CNS turned out to be 39.2 µM; with SN12C renal, 35.9 µM; in the assay with SF-268 CNS, 45.4 µM; in the assay on NCI-H226 lung, 42.9 µM; in the assay on UO-31 renal it was 40.7 µM; in the assay on HCC-2998 colon, 33.3 µM. Further, the TGI in the assay with IGROV1 ovarian was 32 µM; with UACC-257 melanoma, above 100 µM; in the assay on HOP-92 NSCLC it was 27.1 µM.

As to `CC(=O)OC1CC2(C)C(=CC1C1SCCS1)CCC1C2CCC2(C)C(OC(C)=O)CCC12` (centres undefined), the TGI in the assay with SNB-75 CNS was 63.1 µM; in the assay with SN12C renal it was above 100 µM; in the assay with SF-268 CNS, above 100 µM; in the assay on NCI-H226 lung it was above 100 µM; in the assay with BT-549 breast it was above 100 µM; in the assay on UO-31 renal, above 100 µM. Further, the TGI in the assay with IGROV1 ovarian, with UACC-257 melanoma and with HOP-92 NSCLC was above 100 µM throughout.

For the compound `Cc1ccc(/C=C2\CCCCC2=O)cc1`, the TGI in the assay with SNB-75 CNS, in the assay with SN12C renal, in the assay with SF-268 CNS, in the assay with UO-31 renal and in the assay with IGROV1 ovarian was above 100 µM each time.

For the origin of these results see PubChem BioAssay (NCI).
